Measured values from PMC5678437, “A new antagonist for CCR4 attenuates allergic lung inflammation in a mouse model of asthma” (Scientific Reports, 2017).
Like-named read-outs stand apart in the source and are kept apart here.

Columns and labels:
[1] = test system: OVA-induced asthmatic mice; assay: Lung histology (H&E) inflammation score in OVA-induced asthmatic mice; assay type: in vivo, BALB/c mice; settings: 5 mg inhaled aerosol; vs OVA mice treated with vehicle
Description: (§1) Male BALB/c 6 week old mice were purchased from the Experimental Animal Center of Zhejiang University. All mice were raised in a specific pathogen-free animal facility. All animal experiments were carried out according to the guidelines for the care and use of laboratory animals and were approved by the ethics committee of Zhejiang University and Peking University, China.
(§2) Mice were sensitized and challenged with chicken egg OVA (sigma-Aldrich, St Louis, MO, USA) as described in details previously. Briefly, after sensitized by intraperitoneal injection of 100 μl (80 μg) OVA in 100 μl alum (Pierce, Rockford, IL, USA) on days 0 and 14, mice were exposure to 1% OVA aerosols for 40 min on days 24–26. Control mice were injected intraperitoneally with saline and exposed to saline aerosols.
(§3) Compound 8a was dissolved in saline with DMSO (0.5%). Half an hour before each OVA challenge, the groups of mice treated with various doses of compound 8a (0.2, 1, 5 mg) inhaled aerosolized compound 8a for 45 min on days 24–26. Compound 8a aerosols were produced by using a Plexiglas chamber and ultrasonic nebulizer. […]
(§4) After sacrificed, the lungs were fixed in formalin overnight. […] Inflammation was scored according to published guidelines. And PAS-stained goblet cells in airway epithelium were quantified as described previously.

[2] = test system: OVA-induced asthmatic mice; assay: Airway hyperresponsiveness to aerosolized methacholine in OVA-induced asthmatic mice; assay type: in vivo, BALB/c mice; settings: 5 mg inhaled aerosol, days 24-26; 24 h after final OVA challenge
Description: as §1, §2
(§5) Compound 8a was dissolved in saline with DMSO (0.5%). Half an hour before each OVA challenge, the groups of mice treated with various doses of compound 8a (0.2, 1, 5 mg) inhaled aerosolized compound 8a for 45 min on days 24–26. Compound 8a aerosols were produced by using a Plexiglas chamber and ultrasonic nebulizer. While the budesonide (BUD) group were administered with 5 mg budesonide, and the vehicle group were treated with compound-dissolved vehicle. The Saline was treated as the control.
Twenty-four hours after the last challenge, mice were anesthetized and tracheotomized with a cannula, then ventilated at a fixed breathing rate. Once being stabilized, mice were challenged via the airways with saline or increasing concentrations of Mch (1, 2, 4, 8, 16 mg/ml) by nebulization. Airway resistance was measured by FinePointe Series RC Sites (Buxco Research System). Changes in airway resistance were calculated for each Mch concentration.

[3] = test system: OVA-induced asthmatic mice; assay: BALF total cell and cell differential counts in OVA-induced asthmatic mice; assay type: in vivo, BALB/c mice
Description: as §1, §2, §5
Twenty-four hours after the last exposure, collection of BALF and cell count was performed as previously described. Briefly, lavage was performed by instilling 0.4 ml PBS into lungs and with drawn to collect the cells three times. Total BALF cells were counted. After be centrifuged, the remaining cells was spun onto glass slides, and stained with Wright–Giemsa stain. Differential counts were evaluated by counting 400 total cells.

IL-4 = IL-4 in lung homogenate by ELISA in OVA-induced asthmatic mice; assay type: in vivo, BALB/c mice; settings: 5 mg inhaled aerosol; after OVA challenge
Description: as §1, §2
Compound 8a was dissolved in saline with DMSO (0.5%). Half an hour before each OVA challenge, the groups of mice treated with various doses of compound 8a (0.2, 1, 5 mg) inhaled aerosolized compound 8a for 45 min on days 24–26. […]
Twenty-four hours after the last challenge, lungs were removed from control or asthmatic mice, and they were cut into pieces and homogenized in 500 μl PBS, centrifuged (2000 rpm, 10 min) and the supernatant collected. The concentration of IL-4 in lungs were determined by ELISA kit (Sensitivity: 2 pg/ml, R&D Systems, Minneap-olis, MN, USA) following the manufacturer’s protocol.

[4] = test system: OVA-induced asthmatic mice; assay: Airway mucus production (PAS staining) in OVA-induced asthmatic mice; assay type: in vivo, BALB/c mice; settings: compound 8a 0.2, 1, 5 mg; budesonide 5 mg; vs vehicle treated group
Description: as §1, §2, §3, §4

CCR4 = target: T1, CCR4 (Homo sapiens, UniProt P51679); assay: Radio ligand competition binding assay on CCR4 cell membrane extract; settings: HEK293 CCR4 cell membrane extract, 4 °C, 24 h
T1 construct: expressed in transfected cells; cell membrane extract
T1 sequence (P51679 1-360): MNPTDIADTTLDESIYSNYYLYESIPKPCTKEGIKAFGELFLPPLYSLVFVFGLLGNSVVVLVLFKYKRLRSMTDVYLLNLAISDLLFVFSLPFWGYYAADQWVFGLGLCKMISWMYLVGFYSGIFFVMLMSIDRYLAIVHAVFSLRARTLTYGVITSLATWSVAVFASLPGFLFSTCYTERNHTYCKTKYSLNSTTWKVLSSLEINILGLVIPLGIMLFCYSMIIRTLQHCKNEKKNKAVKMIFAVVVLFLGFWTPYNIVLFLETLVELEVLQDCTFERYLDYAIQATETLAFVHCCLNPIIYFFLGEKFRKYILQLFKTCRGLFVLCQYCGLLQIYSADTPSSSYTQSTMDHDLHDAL
Description: A HEK293 cell line stably expressing CCR4-enhanced green fluorescent protein was established. CCL22, CCL17 and C27 were labeled with [^125I]. For competition binding assays, equivalent quantities of cell membrane extract and [^125I]-CCL22, [^125I]-CCL17 and [^125I]-C27 were incubated with varying quantities of unlabeled compound 8a, compound 6b and compound 22. All reactions were incubated at 4 °C for 24 h. After the binding step, 25% polyethylene glycol (6000–8000) and 0.5% human g-globulin were added, and the mixture was incubated at room temperature for 15 min. Binding complexes were obtained by centrifuging the mixture at 3500 rpm for 20 min at 4 °C, and radioactivity was evaluated. Results were corrected for “blank” background radiation, defined as the radioactivity precipitated by polyethylene glycol–g-globulin from the same amount of radioactive ligand in binding buffer in the absence of cells.

[5] = 5 mg inhaled aerosol, compared with vehicle treated group
[6] = compound 8a 0.2, 1, 5 mg, budesonide 5 mg, inhaled aerosol

Compound	peribronchial and perivascular inflammation (H&E histology) [1]	AHR to methacholine compared with asthmatic mice treated with vehicle [2]	absolute number of eosinophils in BALF [3, 5]	absolute number of lymphocytes in BALF [3, 5]	number of macrophages in BALF [3, 6]	number of neutrophils in BALF [3, 6]	expression of IL-4 in lungs (ELISA) (IL-4)	airway mucus production (PAS-stained cells) [4]	IC50 (CCR4; [125I]-C27, read-out: IC50, competitive binding with C27 to CCR4) [nM]	IC50 (CCR4; [125I]-CCL17, read-out: IC50, competitive binding with CCL17 to CCR4) [nM]	IC50 (CCR4; [125I]-CCL22, read-out: IC50, competitive binding with CCL22 to CCR4) [nM]
CCCC1O[C@@H]2C[C@H]3[C@@H]4CCC5=CC(=O)C=C[C@]5(C)[C@H]4[C@@H](O)C[C@]3(C)[C@]2(C(=O)CO)O1 (some centres unmarked) [budesonide, reference compound]	significantly attenuated	significantly lower	significantly decreased	significantly decreased	neither compound 8a nor budesonide affect	neither compound 8a nor budesonide affect	notably decreased	no effect			
O=C([C@@H]1CSCCN1)N1CCN(c2nc(NCc3ccc(Cl)cc3Cl)c3cccnc3n2)CC1 [compound 6b, reference compound]									489	104	360
